From PMC3646888 (PLoS ONE, 2013)
Entries after “also recorded” stand apart in the source; their conditions may differ. Like-named read-outs stand apart in the source and are kept apart here.

How the values were obtained:
CYP19A1h = target: T1, CYP19A1h (Homo sapiens, UniProt P11511); assay: Fluorescence-based CYP assay, recombinant CYP19A1h, substrate DBF; assay type: in vitro ADME
T1 sequence (P11511 1-503): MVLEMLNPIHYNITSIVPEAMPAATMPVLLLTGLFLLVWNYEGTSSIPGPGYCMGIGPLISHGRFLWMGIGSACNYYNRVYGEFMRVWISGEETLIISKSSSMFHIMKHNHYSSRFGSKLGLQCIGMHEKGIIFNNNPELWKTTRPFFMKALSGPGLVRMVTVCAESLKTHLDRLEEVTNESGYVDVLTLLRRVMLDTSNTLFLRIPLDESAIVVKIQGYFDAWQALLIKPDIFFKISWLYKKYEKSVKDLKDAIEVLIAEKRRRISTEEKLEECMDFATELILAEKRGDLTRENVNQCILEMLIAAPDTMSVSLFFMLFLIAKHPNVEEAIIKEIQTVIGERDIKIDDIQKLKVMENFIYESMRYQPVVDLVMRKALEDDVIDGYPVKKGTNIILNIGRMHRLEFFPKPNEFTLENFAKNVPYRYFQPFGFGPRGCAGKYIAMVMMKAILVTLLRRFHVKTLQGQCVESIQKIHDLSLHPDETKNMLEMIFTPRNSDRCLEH
Description: (§1) These assays were performed by methods similar to those described by VanAlstine and Hough, Stresser et al., Wulff et al., Henderson et al., and Crespi et al., with minor modifications. All incubations were performed in a final volume of 200 µL of 50 mM potassium phosphate buffer at pH 7.4 containing 1% acetonitrile. CYP inhibitor studies were performed according to the parameters of Table 1. Substrate concentrations were chosen to be near known Km values. As described in the references cited, two different NADPH regenerating systems were used depending on the substrates used (Table 1). […] Samples were pre-incubated at 37°C for the designated times, and the reactions were initiated with the addition of a substrate and enzyme mixtures (Table 1). […] For the assays utilizing the “high” regenerating system, enzyme reactions were terminated at the designated time by the addition of 75 µL of 2N NaOH, followed by a 2 h post-incubation at 37°C. Product formation was then measured at the designated wavelengths (Table 1). For the “low” regenerating system assays, blanks and standards were prepared in 0.1 mL buffer without the regenerating system. For the “high” regenerating system assays, blanks and standards containing 0.1 mL of buffer received 75 µL of 2N NaOH following pre-incubation.

CYP3A4 [1] = target: T2, CYP3A4 (Homo sapiens, UniProt P08684); assay: Fluorescence-based CYP3A4 assay with BFC as substrate; assay type: in vitro ADME
Description: as §1

CYP3A4 [2] = target: T2, CYP3A4; assay: CYP3A4 assay with LVS as substrate (LC-MS/MS); assay type: in vitro ADME; settings: for IC50 at 20 min: human; for IC50: substrate LVS 10 µM
Description: CYP3A4-containing Supersomes (2 pmol) were incubated with LVS (10 µM) in a 200 µl reaction mixture containing 0.1 M potassium phosphate buffer, pH 7.4, 1.0 mM NADPH, and 3 mM MgCl2 for 20 min at 37°C. The reaction was initiated by the addition of NADPH, and terminated by the addition of 400 µL of acetonitrile to the reaction mixture. Samples were extracted and analyzed for the two major LVS metabolites 6′β-hydroxy LVS and 6′-exomethylene LVS by LC-MS-MS exactly as described.

CYP3A4 [3] = target: T2, CYP3A4; design: method as in PMID 10884437; settings: 10 µM; cited from earlier work

T2 sequence (P08684 whole entry): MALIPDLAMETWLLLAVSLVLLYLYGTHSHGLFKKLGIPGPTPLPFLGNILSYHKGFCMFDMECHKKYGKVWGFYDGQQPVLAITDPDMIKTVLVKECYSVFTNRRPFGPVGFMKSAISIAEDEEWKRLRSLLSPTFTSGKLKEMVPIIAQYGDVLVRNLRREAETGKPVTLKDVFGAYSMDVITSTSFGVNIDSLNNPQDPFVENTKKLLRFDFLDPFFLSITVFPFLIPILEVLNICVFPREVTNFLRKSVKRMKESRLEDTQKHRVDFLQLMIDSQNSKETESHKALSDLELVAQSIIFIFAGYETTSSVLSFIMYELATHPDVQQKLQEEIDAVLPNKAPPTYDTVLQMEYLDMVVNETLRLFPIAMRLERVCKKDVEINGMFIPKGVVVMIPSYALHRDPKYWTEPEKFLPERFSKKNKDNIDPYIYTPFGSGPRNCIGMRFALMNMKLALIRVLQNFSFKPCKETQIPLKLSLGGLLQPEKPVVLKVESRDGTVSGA

Structure (SMILES): Clc1ccccc1C(c1ccccc1)(c1ccccc1)n1cccn1 [TRAM-34, 1-[(2-chlorophenyl)diphenylmethyl]-1H-pyrazole]
- IC50 (CYP19A1h): > 80000 nM
- Inhibition of CYP19A1h (in words) (CYP19A1h; up to 80 µM): little to no inhibition; also recorded: no inhibitory effects
- Effect on CYP3A4 activity with BFC (in words) (CYP3A4 [1]; substrate BFC): concentration-dependent stimulation
- Magnitude of stimulation of CYP3A4 with BFC (CYP3A4 [1]; substrate BFC 50 µM, maximum stimulation): ~200%
- IC50 at 20 min (CYP3A4 [2]; pH 7.4, IC50, formation of 6′-exomethylene LVS by CYP3A4, substrate LVS 10 µM): 640 nM
- IC50 at 20 min (CYP3A4 [2]; pH 7.4, IC50, formation of 6′β-hydroxy LVS by CYP3A4, substrate LVS 10 µM): 920 nM
- IC50 (CYP3A4 [2]; read-out: IC50, formation of 6′-exomethylene LVS by CYP3A4): ~1000 nM
- IC50 (CYP3A4 [2]; read-out: IC50, formation of 6′β-hydroxy LVS by CYP3A4): ~1000 nM
- Inhibition of CYP3A4 with BFC as substrate (in words) (CYP3A4 [3]): did not inhibit
